SMILES strings stand for the structures. Like-named read-outs stand apart in the source and are kept apart here.

The subject of series [1] is GPR88 KO and WT mice. Description: Phencyclidine-stimulated locomotor hyperactivity. It counts as in vivo.
Series [2] has as its target T1, striatal dopamine D2 receptors (Mus musculus, UniProt P61168).
T1 construct: from tissue; host or cells: mouse striatum (WT and GPR88 knockout mice), membrane preparation
Description: [3H]spiperone binding to striatal membrane preparations. Also noted: species or system mice. Here is the method: Striata from 10 mice (male and female, WT & GPR88 KO) were pooled and homogenized in a motor-driven POLYTRON™ homogenizer (Kinematica AG, Newark, N.J.) at setting six for 10 seconds in 3 mL per 100 mg of wet tissue in 50 mM Tris-HCl buffer, pH 7.4, containing 120 mM NaCl, 5 mM KCl, 1.5 mM CaCl2, 4 mM MgCl2, and 1 mM EDTA. […] The binding of each concentration of radioligand was determined in duplicate. Incubations were carried out at room temperature for 120 minutes. The final concentration of the membrane protein in each binding assay was approximately 70 μg/ml. Butaclamol (+), (10 μM), (Sigma-Aldrich, St. Louis, Mo.) was used to define the nonspecific binding. The incubations were terminated by rapid filtration using a Wallac Tomtec harvester (Waltham, Mass.) and buffer-presoaked glass fiber filter mats (GF/B, Whatman Inc. Florham Park, N.J.). […] The radioactivity of the filters was then counted in a Wallac 1205 scintillation counter (Perkin Elmer Life and Analytical Sciences).
The estimates of Bmax (the number of available binding receptors) and Kd (the dissociation constant) were calculated by fitting the specific binding data with nonlinear regression using GraphPad PRISM™ data analysis software (GraphPad Software, San Diego, Calif.).

The test system of series [3] is GPR88 KO and WT mice. In words: Amphetamine-stimulated locomotor hyperactivity. It counts as in vivo. Particulars: 3 mg/kg i.p. How it is done: The amphetamine-stimulated locomotor hyperactivity assay is another type of assay to model the neuropathological states in schizophrenia, similar to the hyperdopaminergia in the ventral striatum. To measure spontaneous activity and amphetamine-stimulated locomotor hyperactivity, the mice were individually placed in Opto-Veramax-3 monitor cages (Columbus Instruments, Columbus, Ohio) and allowed to habituate for 30 minutes with room light and white noise on. After habituation, each mouse was injected with amphetamine (AMPH, 3 mg/kg) in the intraperitoneum. During the first 30 minutes, the spontaneous activity was recorded every 10 minutes. After amphetamine administration, amphetamine-stimulated locomotor hyperactivity was measured every 10 minutes over a 60 minutes time span by the activity monitor. Accuscan Versamax and Versadat software (Columbus Instruments, Columbus, Ohio) were used to convert the infrared beam breaks into horizontal activity counts. […] Males and females were analyzed separately.

Series [4] deals with GPR88 KO and WT mice. In words: In vivo striatal microdialysis, extracellular dopamine after amphetamine. Particulars: 3 mg/kg i.p.; both genotypes, males and females.
Description: Chromatographic separations were performed using a Capcell PAK™, Strong Cation Exchange columns (5 μm UG80, 1.5×150 mm; Shiseido, Phenomenex, USA). The mobile phase comprised (mM) 13 Na2HPO4, 87 NaH2PO4, 0.1 EDTA and 20% methanol, was adjusted to pH 6 and delivered at 0.2 ml/minutes at 40° C.
The subject of series [5] is GPR88 KO and WT mice. In words: Apomorphine-induced climbing and stereotypy. In kind it is in vivo. How it is done: (§1) The GPR88 KO and WT mice were acclimated to a wire cage (cylindrical ½″×½″ mesh with the dimensions of 4½″ d×5½″ h) for at least 2 hours before testing to allow proper habituation. […] (+ present, − absent). Readings were repeated every 5 minutes during a 30-minute test session.
The behavioral assessment was conducted over three conditions in succession: (1) an evaluation of the response to a subcutaneous vehicle (0.25% TWEEN® 80) injection to establish a baseline; (2) followed by an evaluation of the response to a dose of 0.3 mg/kg subcutaneous apomorphine injection; (3) followed by an evaluation of the response to 1 mg/kg subcutaneous apomorphine injection. Behavioral observation began 5 minutes after each injection. Vehicle was given at T0 minutes with observational assessment from T5-T35 minutes and habituation followed from T35-T65 minutes.
At T65, the 0.3 mg/kg dose of apomorphine was administered. Behavioral observation for the 0.3 mg/kg dose of apomorphine was from T70-T100, followed by another habituation from T100-T130 minutes.
At T130 min, the 1.0 mg/kg dose of apomorphine was administered and then the mice were scored from T135-T165 min. For each subject, the climbing scores were totaled for each observational period (maximum=12 per animal). Stereotypy scores were also summed up (maximum=6 per animal). […] Males and females were analyzed separately.

Series [6] concerns GPR88 KO and WT mice. In words: Antipsychotic block of apomorphine-induced climbing and stereotypy. Particulars: for minimal effective dose (MED), block of apomorphine-induced climbing / minimal effective dose (MED), block of apomorphine-induced stereotypy: i.p. 30 minutes before apomorphine 0.54 mg/kg. In kind it is in vivo. How it is done:
as §1
Observation and scoring for climbing and stereotypy were performed as described in Example 6. […] Males and females were analyzed separately. […] For graphical representation, the data was normalized to the amount of climbing and stereotypy shown by the vehicle treated control group.

For series [7], the system named is GPR88 KO and WT mice. In words: Haloperidol-induced catalepsy. The note with it: 1 mg/kg i.p.; for percentage of maximum catalepsy over time: 30, 60, 90, 120 minutes.
Description: Thirty, 60, 90, and 120 minutes following drug administration, the animal's forelimbs were draped over a thin horizontal rod 1¼″ high. The amount of time in seconds for which the animal maintained this awkward posture was recorded (60 seconds was maximum). Maintenance of this position was considered catalepsy. Animals that appeared to be sedated or had loss of muscle tone were checked for a righting reflex. Those mice that could not right themselves when placed on their backs were eliminated from the study. Mean time spent in the catalepsy position for the dose at each time was expressed as a percentage of maximum possible catalepsy. During the study's four time periods, the number of seconds with maintenance of the catalepsy position was recorded for each animal. Data was subjected to repeated-measures ANOVA followed by post-hoc analysis of least squares means. Males and females were analyzed separately.
The subject of series [8] is GPR88 KO and WT mice. Particulars: for percentage prepulse inhibition (PPI), treatment effect: 0.54 mg/kg i.p. 30 minutes before testing, vs vehicle.
Description: To detect potential phenotypic deficits in the GPR88 knockout mice, they were first evaluated for startle habituation. In brief, mice were tested using the SR-LAB (San Diego Instruments, San Diego, Calif.) system. Each system consists of a ventilated sound attenuated chamber containing a stabilimeter consisting of a Plexiglas cylinder (12.5 cm length, 3.5 cm diameter) mounted on a Plexiglas frame. Acoustic stimuli were delivered through a speaker mounted in the enclosure ceiling, that was 27 cm above the cylinder. Startle responses were transduced by a piezoelectric accelerometer mounted beneath the frame. Output signals were digitized and rectified as consecutive 1-millisecond (msec) readings (a total of 65 were recorded, and startle response was expressed as an averaged response across these samples) on a computer using the San Diego Instrument software. Mice were placed individually in the chamber for a 5-minute acclimation period at a background noise level of 64 dB.
Prepulse inhibition was measured immediately following the startle sensitivity test. Five different trial tests were used in studying prepulse inhibition and were performed in a pseudorandom order. These trial tests included (1) a no stimulus trial (64 dB background noise to determine basal activity), a pulse alone trial (118 dB, 40 ms duration), and three 20 ms prepulses at either 69, 76, or 84 dB intensities paired (100 ms, onset to onset) with the 118 dB pulse. […] Percentage prepulse inhibition was calculated as 100 minus the ratio of the average startle response observed at each prepulse+pulse trial relative to the pulse alone stimulus, times 100. The percentage prepulse at across dB levels was analyzed by repeated-measures ANOVA. […] Males and females were analyzed separately. […]
The PPI was averaged across the 3 dB levels and analyzed by a two-way ANOVA with genotype and treatment as the factors followed by a post hoc analysis of least square means. Males and females were again analyzed separately.
[9] abbreviates: female GPR88 KO and WT mice, 1 mg/kg s.c.
[10] abbreviates: GPR88 KO and WT female mice, 0.3 mg/kg.
The mark [11] stands for this setting: male WT mice, 0.54 and 1.0 mg/kg.

T1 sequence (P61168 whole entry): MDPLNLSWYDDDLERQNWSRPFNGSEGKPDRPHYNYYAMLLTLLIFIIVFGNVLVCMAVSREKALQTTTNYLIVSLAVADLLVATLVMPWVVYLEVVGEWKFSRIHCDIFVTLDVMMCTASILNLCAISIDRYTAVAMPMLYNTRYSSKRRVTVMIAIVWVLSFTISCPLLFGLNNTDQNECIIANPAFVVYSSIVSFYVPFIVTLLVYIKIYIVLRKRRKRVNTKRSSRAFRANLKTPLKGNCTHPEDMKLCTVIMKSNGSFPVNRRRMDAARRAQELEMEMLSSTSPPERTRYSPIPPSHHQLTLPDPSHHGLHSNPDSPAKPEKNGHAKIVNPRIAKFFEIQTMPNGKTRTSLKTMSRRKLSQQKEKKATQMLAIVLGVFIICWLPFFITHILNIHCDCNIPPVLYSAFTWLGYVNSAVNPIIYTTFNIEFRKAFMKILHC

Regarding `c1ccc(C2(N3CCCCC3)CCCCC2)cc1` [PCP, phencyclidine], the “locomotor activity after administration” value in the series on GPR88 KO and WT mice [1] (female WT and GPR88 KO mice, 1.0 mg/kg) was “Neither of the genotypes responded”; with GPR88 KO and WT mice [1] (female WT and GPR88 KO mice, 1.7 mg/kg or 3.0 mg/kg) it was “increased locomotor activity”; with GPR88 KO and WT mice [1] (male WT and GPR88 KO mice, 3 mg/kg i.p.), “increased locomotor activity”; in the series on GPR88 KO and WT mice [1] (male WT and GPR88 KO mice, lower doses (1.0, 1.7 mg/kg)), “Neither of the genotypes responded”. Besides, the “locomotor activation (total distance traveled), KO compared with WT” value in the series with GPR88 KO and WT mice [1] (female mice) is on record as “increased sensitivity for locomotor activation”; in the series with GPR88 KO and WT mice [1] (male mice), “increased sensitivity for locomotor activation”.
With `O=C(CCCN1CCC2(CC1)C(=O)NCN2c1ccccc1)c1ccc(F)cc1` [[^3H]spiperone], the “Bmax (the number of available binding receptors)” value in series [2] (striatal membranes of GPR88 KO mice) was 1.83 pmol/mg; in series [2] (striatal membranes of WT mice) it was 1.34 pmoles/mg protein.
Regarding `CC(N)Cc1ccccc1` (centres unmarked) [amphetamine], the “locomotor activity after administration” value is reported as “significant increase in activity” in the series with GPR88 KO and WT mice [3] (female mice, 40-90 min); “significant increase in activity” with GPR88 KO and WT mice [3] (male mice (GPR88 KO), 40-90 min). For the same compound, the “locomotor activity, KO compared with WT” value with GPR88 KO and WT mice [3] (female mice, 40-90 min) was “more hyperactivity overall”; in the series on GPR88 KO and WT mice [3] (male mice), “greater increase in activity up to the 50 minute time point”. The “striatal extracellular dopamine after administration” value with GPR88 KO and WT mice [4] is “significant and equal increase in dopamine”.
For the compound `CN1CCc2cccc3c2[C@H]1Cc1ccc(O)c(O)c1-3` [apomorphine], in the series with GPR88 KO and WT mice [5] (apomorphine-induced), the “average increase in climbing scores of GPR88 KO mice over the wild type mice” value is on record as 227% and the “average increase in stereotypy scores of GPR88 KO mice over the wild type mice” value amounted to 129%. In the series with GPR88 KO and WT mice [5] (setting [9]), the “climbing, dose effect” value is “the most climbing” and the “stereotypy, dose effect” value is reported as “the most stereotypy”. Moreover, in the series on GPR88 KO and WT mice [5] (female mice, 0.3 mg/kg s.c.), the “climbing scores, KO compared with WT” value is on record as “higher climbing scores” and the “stereotypy, KO compared with WT” value was “more stereotypy”. Also, the “climbing, KO compared with WT” value in the series with GPR88 KO and WT mice [5] (female mice, 1 mg/kg s.c.) is listed as “equivalent”. In addition, the “stereotypy scores, dose effect” value in the series on GPR88 KO and WT mice [5] (male GPR88 KO and WT mice, 1 mg/kg s.c.) was “maximal stereotypy”. The “climbing scores, dose effect” value with GPR88 KO and WT mice [5] (male GPR88 KO and WT mice, vehicle, 0.3 and 1 mg/kg s.c.) is listed as “climbing increasing with the dose of apomorphine”. In the series on GPR88 KO and WT mice [5] (male mice, 0.3 mg/kg s.c.), the “climbing scores, KO compared with WT” value is reported as “higher climbing scores” and the “stereotypy, KO compared with WT” value is recorded as “more stereotypy”. For the same compound, in the series with GPR88 KO and WT mice [5] (male mice, 1 mg/kg s.c.), the “climbing, KO compared with WT” value was “equivalent” and the “stereotypy, KO compared with WT” value was “equivalent”.
Take `O=C(CCCN1CCC(O)(c2ccc(Cl)cc2)CC1)c1ccc(F)cc1` [haloperidol]: in the series with GPR88 KO and WT mice [6] (setting [10]), the “block of apomorphine-induced climbing” value is “full block of climbing” and the “block of apomorphine-induced stereotypy” value is “full block of stereotypy”. Further, in the series on GPR88 KO and WT mice [6] (male GPR88 KO mice), the “dose required to produce a full block of climbing” value is 1.0 mg/kg; the “minimal effective dose, apomorphine-induced climbing and stereotypy (summary)” value amounted to 0.54 mg/kg; the “minimal effective dose (MED), block of apomorphine-induced climbing” value was 0.54 mg/kg; the “minimal effective dose (MED), block of apomorphine-induced stereotypy” value was found to be 0.54 mg/kg. For the same compound, in the series on GPR88 KO and WT mice [6] (male GPR88 KO mice, 1.0 mg/kg), the “block of apomorphine-induced stereotypy” value came out at 50%. Moreover, in the series with GPR88 KO and WT mice [6] (male WT mice), the “minimal effective dose, apomorphine-induced climbing and stereotypy (summary)” value is reported as less than 0.3 mg/kg; the “minimal effective dose (MED), block of apomorphine-induced climbing” value is given as “less than or equal to 0.3 mg/kg”; the “minimal effective dose (MED), block of apomorphine-induced stereotypy” value was “less than or equal to 0.3 mg/kg”. Further, in the series with GPR88 KO and WT mice [6] (setting [11]), the “block of apomorphine-induced climbing” value was “full block of climbing” and the “block of apomorphine-induced stereotypy” value is reported as “full block of stereotypy”. Besides, the “percentage of maximum catalepsy over time” value with GPR88 KO and WT mice [7] (GPR88 KO and WT male mice) is “percentage of maximum catalepsy increasing to the 120 minute test point”. The “percentage of maximum catalepsy over time” value with GPR88 KO and WT mice [7] (female mice) is recorded as “percentage of maximum catalepsy increasing to the 120 minute test point”. In addition, in the series on GPR88 KO and WT mice [7] (male and female mice), the “level of catalepsy, GPR88 KO compared with WT” value is given as “equivalent levels of catalepsy”.
Turning to `Cc1nc2n(c(=O)c1CCN1CCC(c3noc4cc(F)ccc34)CC1)CCCC2` [risperidone], in the series on GPR88 KO and WT mice [8] (GPR88 KO mice, summary statement), the “deficit in PPI of GPR88 KO mice upon treatment” value is reported as “normalized”. Besides, the “percentage prepulse inhibition (PPI), treatment effect” value with GPR88 KO and WT mice [8] (male GPR88 KO mice) is listed as “significant treatment effect”; in the series on GPR88 KO and WT mice [8] (male WT mice) it was “significant treatment effect”.

Source of the values: US20080039535A1, “METHODS OF IDENTIFYING AGENTS FOR TREATING NEUROLOGICAL DISORDERS” (Wyeth, priority 2006, published 2008).
